{
  "source": "patent US4396598A",
  "about": "“Triiodoisophthalamide X-ray contrast agent” (Mallinckrodt, Inc., priority 1982, dated 1983)",
  "key": {"[1]": {"experiment": "Radiographic observations, lateral radiograph of head and thorax in rat after intracisternal injection", "type": "in vivo", "conditions": "male rat, 137 mg I/kg (40% I solution), immediately after administration"}, "Sprague Dawley rats": {"system": "Sprague Dawley rats", "experiment": "Acute Intracisternal Toxicity in Rats", "type": "in vivo", "conditions": "concentration 450, two day observation, 95% confidence limits 874-1,385", "method": "(§1) The following pharmacological studies were conducted on N,N'-bis(2,3-dihydroxypropyl)-5-N-(2-hydroxyethyl)glycolamido-2,4,6-triiodoisophthalamide (PRODUCT), prepared by the method of Example 1.\n(§2) The technique described by Melartin, et al. (Invest. Radiol. 5: 13-21, 1970) was utilized to evaluate lethal effects of a solution of the PRODUCT after injection into cerebrospinal fluid at the cisterna magna. Young adult male Sprague Dawley rats were used. After dosing, the animals were housed individually and observed for immediate reactions and periodically for a two day observation period. The LD50 value was calculated by the method of Litchfield and Wilcoxin (J. Pharmacol. Exp. Therap. 96: 99-113, 1949) with the following results: […]"}, "[2]": {"experiment": "Acute Intracisternal Toxicity in Rats", "type": "in vivo, Sprague Dawley rats", "conditions": "rat, in vivo, concentration 450, two day observation, 95% confidence limits 1,853-2,936", "method": "as §1, §2"}, "Swiss mice": {"system": "Swiss mice", "experiment": "Acute Intravenous Toxicity in Mice", "type": "in vivo", "conditions": "i.v., 40% I, seven day observation", "method": "as §1\nA solution of the PRODUCT (40% I) was injected into the lateral tail vein of young adult male and female Swiss mice at a rate of 1 ml/min. […]"}, "[3]": {"experiment": "Radiographic observations, whole body radiographs in mouse after intravenous administration", "type": "in vivo", "conditions": "male mouse, i.v. (lateral tail vein), 10,000 mg I/kg (40% I solution), immediately and 5 minutes after administration", "method": "A male mouse (23 g) was anesthetized with sodium pentobarbital (40 mg/kg, i.p.; Nembutal®, Abbott Laboratories). The N,N'-bis(2,3-dihydroxypropyl)-5-N-(2-hydroxyethyl)glycolamido-2,4,6-triiodoisophthalamide prepared by method of Example 1, was administered at a dose of 10,000 mg I/kg (40% I solution) via a lateral tail vein of the mouse at a rate of 1 ml/minute."}},
  "data": [
    {"compound": "O=C(NCC(O)CO)c1c(I)c(C(=O)NCC(O)CO)c(I)c(N(CCO)C(=O)CO)c1I", "note": "(centres unmarked) [PRODUCT, N,N'-Bis(2,3-dihydroxypropyl)-5-N-(2-hydroxyethyl)glycolamido-2,4,6-triiodoisophthalamide]", "values": [
      {"measurement": "visualization on lateral radiograph of the head and thorax", "setting": "[1]", "result": "good visualization of the cisterna magna, basal cisterns, and cervical subarachnoid space"},
      {"measurement": "LD50 (95% Confidence Limits)", "setting": "Sprague Dawley rats", "result": "1,100 mg I/kg"},
      {"measurement": "LD50 at 48 h", "setting": "[2]", "result": 2330, "unit": "mg/kg"},
      {"measurement": "NUMBER OF MORTALITIES/NUMBER DOSED", "setting": "Swiss mice; 18,500 mg I/kg (39,220 mg/kg)", "result": "0/8"},
      {"measurement": "NUMBER OF MORTALITIES/NUMBER DOSED", "setting": "Swiss mice; 20,000 mg I/kg (42,400 mg/kg)", "result": "5/8"},
      {"measurement": "NUMBER OF MORTALITIES/NUMBER DOSED", "setting": "Swiss mice; 21,500 mg I/kg (45,580 mg/kg)", "result": "10/10"},
      {"measurement": "LD50", "setting": "Swiss mice; mice", "result": "about 20,000 mg I/kg"},
      {"measurement": "opacification on whole body radiographs", "setting": "[3]", "result": "opacification of the liver and cardiovascular and renal excretory systems"}
    ]}
  ]
}
